# Data taken from US20010056060A1, “Treatment of osteoporsis with EP2/EP4 receptor selective agonists” (priority 2000, published 2001).
# How the values were obtained:
# osteopenic, OVX rats = test: Example One: skeletal effects in osteopenic OVX rats, distal femoral metaphyseal BMC/BMD by DXA; assay type: in vivo, Sprague-Dawley female rats; conditions: 10 mg/kg/day subcutaneous injection for 4 weeks
# Protocol: Prostaglandin E2 (PGE2) restores bone mass by stimulating both bone formation and bone resorption but in favor of bone formation in ovariectomized (OVX) rat skeleton.
# Sprague-Dawley female rats were sham-operated (n=20) or OVX (n=50) at 3 months of age. Five weeks post-surgery, OVX rats were treated (subcutaneous injection) with either vehicle or 3-(3-hydroxy-4-phenyl-butyl)-2-(6-(1 H—tetrazol-5-yl)-hexyl)-cyclopentanone at 10 mg/kg/day for 4 weeks. Distal femoral metaphyseal bone mineral content (BMC) and bone mineral density (BMD) were determined by dual energy x-ray absorptiometry (Hologic QDR-1000/W, Hologic Inc., Waltham, Mass.) according to the methods described by Ke et al., (Droloxifene, a New Estrogen Antagonist/Agonist, Prevents Bone Loss in Ovariectomized Rats, Endocrinology, 136:2435-2441; 1995).
# EP1 receptor = molecular target: T1, EP1 receptor (Homo sapiens, UniProt P34995); test: Assay for binding to prostaglandin E2 receptors (3H-PGE2 displacement), EP1
# T1 construct: The full length EP1 receptor is made as disclosed in Funk et al; expressed in transfected cells; membranes
# T1 sequence (P34995 1-402): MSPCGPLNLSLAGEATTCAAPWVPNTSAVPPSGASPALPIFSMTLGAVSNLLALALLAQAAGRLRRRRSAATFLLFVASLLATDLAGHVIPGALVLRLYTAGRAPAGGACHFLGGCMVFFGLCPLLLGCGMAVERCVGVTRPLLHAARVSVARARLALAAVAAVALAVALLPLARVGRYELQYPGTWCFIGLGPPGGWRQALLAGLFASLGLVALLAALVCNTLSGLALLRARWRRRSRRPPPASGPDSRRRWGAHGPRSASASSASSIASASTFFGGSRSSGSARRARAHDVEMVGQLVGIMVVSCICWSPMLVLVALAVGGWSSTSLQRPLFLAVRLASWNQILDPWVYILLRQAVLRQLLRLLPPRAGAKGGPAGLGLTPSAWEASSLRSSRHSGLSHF
# Protocol: (§1) All operations are performed at 4° C. […] Louis, Mo.), 1 uM pepstatin A peptide, (Sigma, St. Louis, Mo.), 10 uM elastatinal peptide, (Sigma, St. Louis, Mo.), 100 uM antipain peptide, (Sigma, St. Louis, Mo.)]. The cells are lysed by sonification with a Branson Sonifier (Model #250, Branson Ultrasonics Corporation, Danbury, Conn.) in 2 fifteen second bursts. Unlysed cells and debris are removed by centrifugation at 100× g for 10 min. Membranes are then harvested by centrifugation at 45,000× g for 30 minutes. Pelleted membranes are resuspended to 3-10 mg protein per ml, protein concentration being determined of the method of Bradford [Bradford, M., Anal. Biochem., 72, 248 (1976)]. Resuspended membranes are then stored frozen at -80° C. until use. Frozen membranes prepared as above are thawed and diluted to 1 mg protein per ml in Buffer A above. One volume of membrane preparation is combined with 0.05 volume test compound or buffer and one volume of 3 nM ^3H-prostaglandin E2 (#TRK 431, Amersham, Arlington Heights, Ill.) in Buffer A. The mixture (205 μL total volume) is incubated for 1 hour at 25° C. […] To determine the amount of ^3H-prostaglandin bound to the membranes, the dried filters are placed into plastic bags with scintillation fluid and counted in a LKB 1205 Betaplate reader (Wallac, Gaithersburg, Md.). […]
# EP2 receptor = molecular target: T2, EP2 receptor (Homo sapiens, UniProt P43116); test: Assay for binding to prostaglandin E2 receptors (3H-PGE2 displacement), EP2
# T2 construct: The full length EP2 receptor is made as disclosed in Regan et al; expressed in transfected cells; membranes
# Protocol: (§2) All operations are performed at 4° C. […] The cells are lysed by sonification with a Branson Sonifier (Model #250, Branson Ultrasonics Corporation, Danbury, Conn.) in 2 fifteen second bursts. Unlysed cells and debris are removed by centrifugation at 100× g for 10 min. Membranes are then harvested by centrifugation at 45,000× g for 30 minutes. Pelleted membranes are resuspended to 3-10 mg protein per ml, protein concentration being determined of the method of Bradford [Bradford, M., Anal. Biochem., 72, 248 (1976)]. Resuspended membranes are then stored frozen at −80° C. until use.
# (§3) Frozen membranes prepared as above are thawed and diluted to 1 mg protein per ml in Buffer A above. […] The membranes are then recovered by filtration through type GF/C glass fiber filters (#1205-401, Wallac, Gaithersburg, Md.) using a Tomtec harvester (Model Mach II/96, Tomtec, Orange, Conn.). […] Each sample is then washed 3 times with 3 ml of [50 mM Tris-HCl (pH 7.4), 10 mM MgCl2, 1 mM EDTA]. The filters are then dried by heating in a microwave oven. To determine the amount of ^3H—prostaglandin bound to the membranes, the dried filters are placed into plastic bags with scintillation fluid and counted in a LKB 1205 Betaplate reader (Wallac, Gaithersburg, Md.).
# (§4) The full length EP1 receptor is made as disclosed in Funk et al., Journal of Biological Chemistry, 1993, 268, 26767-26772. […]
# IP receptor = IP receptor (Homo sapiens, UniProt P43119); test: IP receptor binding
# DP receptor = molecular target: T3, DP receptor (Homo sapiens, UniProt Q13258); test: DP receptor binding
# T3 sequence (Q13258 1-359): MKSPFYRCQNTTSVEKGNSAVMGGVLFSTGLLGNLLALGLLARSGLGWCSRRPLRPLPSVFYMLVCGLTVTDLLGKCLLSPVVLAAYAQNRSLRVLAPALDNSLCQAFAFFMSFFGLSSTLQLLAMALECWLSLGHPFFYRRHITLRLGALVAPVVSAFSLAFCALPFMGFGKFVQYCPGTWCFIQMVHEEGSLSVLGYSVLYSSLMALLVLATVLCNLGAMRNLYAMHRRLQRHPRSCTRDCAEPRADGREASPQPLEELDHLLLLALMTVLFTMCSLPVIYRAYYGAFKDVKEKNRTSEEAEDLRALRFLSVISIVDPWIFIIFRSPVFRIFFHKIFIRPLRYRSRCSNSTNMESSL
# EP3 receptor = molecular target: T4, EP3 receptor (Homo sapiens, UniProt P43115); test: Assay for binding to prostaglandin E2 receptors (3H-PGE2 displacement), EP3
# T4 construct: The full length EP3 receptor is made as disclosed in Regan et al; expressed in transfected cells; membranes
# T4 sequence (P43115 1-390): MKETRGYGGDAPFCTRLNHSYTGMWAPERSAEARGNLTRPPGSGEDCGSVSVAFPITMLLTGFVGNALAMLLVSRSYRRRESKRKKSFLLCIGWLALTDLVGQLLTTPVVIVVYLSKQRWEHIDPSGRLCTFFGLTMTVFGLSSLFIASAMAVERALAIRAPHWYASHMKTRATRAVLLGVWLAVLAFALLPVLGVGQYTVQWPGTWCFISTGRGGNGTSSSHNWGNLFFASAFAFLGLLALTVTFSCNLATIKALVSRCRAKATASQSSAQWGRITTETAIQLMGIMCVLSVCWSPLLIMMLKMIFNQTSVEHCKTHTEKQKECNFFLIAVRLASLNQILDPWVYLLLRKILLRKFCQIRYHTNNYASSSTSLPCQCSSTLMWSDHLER
# Protocol: as §1
# EP4 receptor = molecular target: T5, EP4 receptor (Homo sapiens, UniProt P35408); test: Assay for binding to prostaglandin E2 receptors (3H-PGE2 displacement), EP4
# T5 construct: The full length EP4 receptor is made as disclosed in Bastien; expressed in transfected cells; membranes
# Protocol: as §2, §3, §4
# FP receptor = FP receptor (Homo sapiens, UniProt P43088); test: FP receptor binding
# Chain of FP receptor (P43088 whole entry): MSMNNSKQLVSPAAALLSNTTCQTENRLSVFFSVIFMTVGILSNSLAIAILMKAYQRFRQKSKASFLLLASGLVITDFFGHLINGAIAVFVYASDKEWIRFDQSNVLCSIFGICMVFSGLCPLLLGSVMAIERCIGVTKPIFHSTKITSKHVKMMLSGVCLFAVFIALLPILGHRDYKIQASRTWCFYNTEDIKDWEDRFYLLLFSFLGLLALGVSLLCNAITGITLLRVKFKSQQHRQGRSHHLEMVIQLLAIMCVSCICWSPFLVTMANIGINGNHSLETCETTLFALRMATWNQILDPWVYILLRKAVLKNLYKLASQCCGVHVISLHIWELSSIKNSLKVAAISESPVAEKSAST
# T5 sequence (P35408 whole entry): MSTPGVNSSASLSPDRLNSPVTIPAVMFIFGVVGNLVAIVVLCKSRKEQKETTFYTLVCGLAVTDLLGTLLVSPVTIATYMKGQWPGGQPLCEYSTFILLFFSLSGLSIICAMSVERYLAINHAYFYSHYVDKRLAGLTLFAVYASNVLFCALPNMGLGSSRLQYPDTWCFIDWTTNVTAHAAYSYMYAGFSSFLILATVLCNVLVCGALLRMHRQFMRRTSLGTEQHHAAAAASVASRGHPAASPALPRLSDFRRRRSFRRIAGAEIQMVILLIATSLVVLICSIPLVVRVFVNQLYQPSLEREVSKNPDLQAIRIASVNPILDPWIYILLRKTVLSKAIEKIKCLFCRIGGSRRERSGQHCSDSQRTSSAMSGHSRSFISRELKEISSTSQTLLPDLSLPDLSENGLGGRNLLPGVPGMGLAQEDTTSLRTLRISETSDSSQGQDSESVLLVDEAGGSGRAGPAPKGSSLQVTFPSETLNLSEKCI
# T2 sequence (P43116 whole entry): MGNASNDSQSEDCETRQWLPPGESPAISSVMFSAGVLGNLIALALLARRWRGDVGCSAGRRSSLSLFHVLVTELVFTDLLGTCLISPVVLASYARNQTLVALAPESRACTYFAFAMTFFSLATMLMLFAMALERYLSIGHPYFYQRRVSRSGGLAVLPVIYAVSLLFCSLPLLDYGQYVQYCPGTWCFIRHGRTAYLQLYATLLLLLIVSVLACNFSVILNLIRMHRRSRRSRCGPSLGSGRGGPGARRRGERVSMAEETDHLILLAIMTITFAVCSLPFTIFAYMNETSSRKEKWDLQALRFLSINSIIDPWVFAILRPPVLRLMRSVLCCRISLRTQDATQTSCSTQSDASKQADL
# Chain of IP receptor (P43119 whole entry): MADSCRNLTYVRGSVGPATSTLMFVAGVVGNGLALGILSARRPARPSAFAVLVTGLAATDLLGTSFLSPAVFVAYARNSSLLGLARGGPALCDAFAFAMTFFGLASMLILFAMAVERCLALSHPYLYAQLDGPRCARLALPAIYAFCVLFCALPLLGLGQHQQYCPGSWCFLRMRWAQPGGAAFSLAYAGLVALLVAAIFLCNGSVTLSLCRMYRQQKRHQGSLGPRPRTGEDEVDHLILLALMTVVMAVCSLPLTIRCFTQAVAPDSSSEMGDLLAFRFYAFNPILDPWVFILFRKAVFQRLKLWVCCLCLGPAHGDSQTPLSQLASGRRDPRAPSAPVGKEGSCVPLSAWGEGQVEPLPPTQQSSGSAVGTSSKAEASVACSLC
IC50 (EP1 receptor),IC50 (EP2 receptor),IC50 (IP receptor),IC50 (DP receptor),IC50 (EP3 receptor),IC50 (EP4 receptor),IC50 (FP receptor),Structure (SMILES),"restoration of bone mass to the OVX, osteopenic rat skeleton (osteopenic, OVX rats)","increase in distal femoral metaphyseal BMC as compared with OVX controls (osteopenic, OVX rats; started 5 weeks post-OVX)","increase in distal femoral metaphyseal BMC as compared with pre-treatment OVX controls (osteopenic, OVX rats; started 5 weeks post-OVX)","increase in distal femoral metaphyseal BMD as compared with OVX controls (osteopenic, OVX rats; started 5 weeks post-OVX)","increase in distal femoral metaphyseal BMD as compared with pre-treatment OVX controls (osteopenic, OVX rats; started 5 weeks post-OVX)"
> 3200 nM,56 nM,> 3200 nM,> 3200 nM,> 3200 nM,70 nM,> 3200 nM,O=C1CCC(CCC(O)Cc2ccccc2)C1CCCCCCc1nnn[nH]1 (centres unmarked) [3-(3-hydroxy-4-phenyl-butyl)-2-(6-(1 H—tetrazol-5-yl)-hexyl)-cyclopentanone],completely restored the bone mass,+42%,+23%,+28%,+17%
–,17 nM,–,–,–,–,–,"CS(=O)(=O)N(CCCCCCC(=O)O)CCOc1cc(Cl)cc(Cl)c1 [7-(2-(3,5-dichloro-phenoxy)-ethyl)-methanesulfonyl-amino)-heptanoic acid]",–,–,–,–,–
–,–,–,–,–,36 nM,–,O=C(O)CCCCCCN1C(=O)CCC1CCC(O)Cc1ccccc1 (centres unmarked) [7-(2-(3-hydroxy-4-phenyl-butyl)-5-oxo-pyrrolidin-1-yl)-heptanoic acid],–,–,–,–,–
